In this assay the target is full length NS3/4a (Hepatitis C virus genotype 1b (isolate BK) (HCV), UniProt P26663). Nature of the assay: NS3 Protease Assay (Example A), FRET-based. Format: biochemical. On the procedure:
The HCV NS3 protease functions have been extensively studied and are considered as potential targets for antiviral therapy: see for example the many references listed in the introductory section of this application. Therefore, the activity of the compounds of the invention as anti-HCV agents was assessed using a full length HCV NS3 protease.
The protease activity of the full length NS3/4a was measured using a FRET-based assay utilizing a peptide substrate derived from the NS4A/B cleavage site (Anaspec) and labelled at one end with a quencher (QXL520) and at the other with a fluorophore (5-FAMsp). NS3/4a (produced in-house by literature methods) was incubated with test compounds and peptide substrate in 50 mM Tris pH8, 20 mM DTT, 1% CHAPS, 10% glycerol and 5% DMSO. The reaction was followed by monitoring the change in fluorescence on a Molecular Devices Gemini plate reader for 30 minutes at room temperature. Initial rates were calculated from the progress curves using SoftMax Pro (Molecular Devices). IC50 values were then calculated from replicate curves using Prism GraphPad software.

The mark [1] stands for this setting: HCV NS3 protease assay, full length NS3/4a, read-out: Assay A IC50 (μM) average.
Setting [2] is: read-out: IC50 against the protease activity of the full length NS3/4a.
The mark [3] stands for this setting: stated as IC50 less than 30 μM or at least 40% inhibition at a concentration of 100 μM, read-out: IC50 against the protease activity of the full length NS3/4a.

Where two headings read alike, the source gives them in different places. Where only a bound is given, the exact number is not on record here.

full length NS3/4a, sequence (P26663 1027-1657): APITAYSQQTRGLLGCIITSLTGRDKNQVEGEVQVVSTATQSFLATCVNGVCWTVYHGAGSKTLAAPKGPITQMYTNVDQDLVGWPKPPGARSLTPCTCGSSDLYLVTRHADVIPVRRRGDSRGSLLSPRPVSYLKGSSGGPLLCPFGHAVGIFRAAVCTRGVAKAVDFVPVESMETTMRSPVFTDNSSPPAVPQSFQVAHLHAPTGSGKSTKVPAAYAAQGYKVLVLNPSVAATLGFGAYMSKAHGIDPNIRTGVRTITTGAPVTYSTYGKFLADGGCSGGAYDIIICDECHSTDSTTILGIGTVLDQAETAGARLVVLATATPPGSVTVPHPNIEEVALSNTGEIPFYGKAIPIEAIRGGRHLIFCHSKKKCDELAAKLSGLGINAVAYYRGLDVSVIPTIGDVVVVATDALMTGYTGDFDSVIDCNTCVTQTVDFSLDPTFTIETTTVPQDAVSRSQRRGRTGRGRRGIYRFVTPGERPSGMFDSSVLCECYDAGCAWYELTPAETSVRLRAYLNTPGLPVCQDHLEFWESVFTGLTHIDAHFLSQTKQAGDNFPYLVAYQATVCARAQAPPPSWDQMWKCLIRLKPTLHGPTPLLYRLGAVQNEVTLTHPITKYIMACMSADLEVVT

Consider `C[C@H](CC(N)=O)N[C@@H](c1ccc(Cl)c(C(=O)c2ccc(F)cc2)c1F)C1CC1` [Example 120, (3R)-3-{[(R)-{4-chloro-2-fluoro-3-[(4-fluorophenyl)carbonyl]phenyl}(cyclopropyl)methyl]amino}butanamide], for which the IC50 is 1.2 µM under setting [1] and 1 to 5 µM under setting [2].

With `CC[C@@H](N[C@H](C)c1cnc[nH]1)c1ccc(Cl)c(C(=O)c2cccnc2)c1F` [Example 304, [(1R)-1-{4-chloro-2-fluoro-3-[(pyridin-3-yl)carbonyl]phenyl}propyl] [(1R)-1-(1H-imidazol-5-yl)ethyl]amine], the IC50 by setting is: under setting [1], 4.7 µM; under setting [2], 1 to 5 µM.

On to `CC[C@@H](N)c1ccc(Cl)c(C(=O)c2ccc(N(C)C)nc2)c1F` [Example 35, 5-({3-[(1R)-1-aminopropyl]-6-chloro-2-fluorophenyl}carbonyl)-N,N-dimethylpyridin-2-amine], for which, under “@ 10 uM”, the inhibition (commonly the percentage by which the read-out fell short of the control) at 10 µM was 30%.

With `CC[C@@H](NCCCO)c1ccc(Cl)c(C(=O)c2ccccc2)c1F` [Example 181, 3-{[(1R)-1-(3-benzoyl-4-chloro-2-fluorophenyl)propyl]-amino}propan-1-ol], the IC50 under setting [1] is 0.26 µM.

With `CC[C@@H](N[C@H](C)CC(N)=O)c1ccc(Cl)c(C(=O)c2ccnc(N)c2)c1F` [Example 206, (3R)-3-{[(1R)-1-{3-[(2-aminopyridin-4-yl)carbonyl]-4-chloro-2-fluorophenyl}propyl]amino}butanamide], the IC50 under setting [1] is 1.2 µM and the IC50 under setting [2] lay within 1 to 5 µM.

Regarding `Nc1cnc(C(=O)c2c(Cl)ccc([C@H](N)C3CC3)c2F)cn1` [Example 56, 5-({3-[(R)-amino(cyclopropyl)methyl]-6-chloro-2-fluorophenyl}carbonyl)pyrazin-2-amine], the IC50 was 0.6 µM under setting [1] and less than 1 µM under setting [2].

Regarding `CC[C@@H](N)c1ccc(F)c(C(=O)c2ccccc2)c1F` [Example 43, (1R)-1-(3-benzoyl-2,4-difluorophenyl)propan-1-amine], the IC50 was 0.74 µM under setting [1] and less than 1 µM under setting [2].

As to `CC[C@@H](N)c1ccc(Cl)c(C(=O)c2ccc(C(=O)O)nc2)c1F` [Example 19, 5-({3-[(1R)-1-aminopropyl]-6-chloro-2-fluorophenyl}carbonyl)pyridine-2-carboxylic acid], the IC50 under setting [1] worked out at 20 µM and the IC50 under setting [3] is less than 30 µM.

Regarding `CC[C@@H](N)c1ccc(Cl)c(C(=O)c2ccc(C(N)=O)nc2)c1F` [Example 22, 5-({3-[(1R)-1-aminopropyl]-6-chloro-2-fluorophenyl}carbonyl)pyridine-2-carboxamide], the IC50 reads like this: under setting [1], 1.8 µM; under setting [2], 1 to 5 µM.

As to `CC[C@@H](N[C@@H](C)CC(N)=O)c1ccc(Cl)c(C(=O)c2ccc(N)c(C#N)c2)c1F` [Example 213, (3S)-3-{[(1R)-1-{3-[(4-amino-3-cyanophenyl)carbonyl]-4-chloro-2-fluorophenyl}propyl]amino} butanamide], the IC50 under setting [1] was 0.35 µM.

For `CC[C@@H](N[C@H](C)CC(N)=O)c1ccc(C)c(C(=O)c2ccccc2)c1F` [Example 151, (3R)-3-{[(1R)-1-(3-benzoyl-2-fluoro-4-methylphenyl)propyl]amino}butanamide], the IC50 under setting [1] was determined as 0.49 µM.

Regarding `C[C@H](CC(N)=O)N[C@@H](c1ccc(Cl)c(C(=O)c2cnc(N)cn2)c1F)C1CC1` [Example 195, (3R)-3-{[(R)-{3-[(5-aminopyrazin-2-yl)carbonyl]-4-chloro-2-fluorophenyl}(cyclo-propyl)methyl]amino}-butanamide], the IC50 is 6.2 µM under setting [1] and less than 30 µM under setting [3].

As for `N#Cc1ccc(C(=O)c2c(Cl)ccc([C@H](N)C3CC3)c2F)nc1` [Example 62, 6-({3-[(R)-amino(cyclopropyl)methyl]-6-chloro-2-fluorophenyl}carbonyl)pyridine-3-carbonitrile], the IC50 is 0.32 µM under setting [1] and less than 1 µM under setting [2].

Source of the values: patent US9145354B2, “Pharmaceutical compounds” (priority 2011, dated 2015).
